Where “and” joins values, the source holds several entries; their conditions need not be identical. Equal values may be shown once. Read-outs that look alike come from different tables or passages of the source.
Columns and labels:
[1] = test system: FLK-1 receptor; test: FLK-1 Assay (cellular/catalytic ELISA, VEGF-stimulated phosphotyrosine); type: cell-based; design: concentration or dose not given beside the values
Outline: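 Receptor phosphotyrosine ELISA: Flk-1-expressing NIH3T3 C7#3 cells, starved overnight in 0.1% FBS medium, received compound (1:200 final dilution, 0.5% DMSO) for 2 h at 37 °C, then VEGF. Anti-FLK-1-captured receptor was probed with anti-phosphotyrosine UB40 and peroxidase/ABTS read-out, relative to cells without compound.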

[2] = test system: PDGF-R; test: PDGF-R Assay (cellular ELISA, U1242 cells); type: cell-based; design: concentration or dose not given beside the values
Outline: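 Cellular ELISA for receptor autophosphorylation: after 2 hr test-compound treatment of serum-free U1242 cells at 37°C, ligand is added for 5–10 min, cells are lysed (HNTG) and receptor captured by specific antibody. Anti-phosphotyrosine plus secondary antibody with ABTS colour read at 410/630 nm, compared with compound-free control cells.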

Row | SMILES | Flk Kinase % Inhibition (P.110) [1] [%] | PDGF Kinase % Inhibition (P.119) [2] [%] | Flk Kinase % Inhibition (P.110) ([1]; protocol P.110)
1 | CCOc1ccccc1C=C1C(=O)Nc2c(Br)cc(Br)c(C)c21 [10717/H02] | 4.0 | – | –
2 | Cc1c(Br)cc(Br)c2c1C(=Cc1cccs1)C(=O)N2 [10717/H03] | 8.6 | – | –
3 | Cc1c(Br)cc(Br)c2c1C(=Cc1cccn1C)C(=O)N2 [10717/H04] | 0.4 | – | –
4 | COc1ccc(C=C2C(=O)Nc3c(Br)cc(Br)c(C)c32)cc1OC [10720/H04] | −5.8 | – | –
5 | Cc1c(Br)cc(Br)c2c1C(=Cc1ccccc1O)C(=O)N2 [10720/H05] | −12.3 | – | –
6 | Cc1c(Br)cc(Br)c2c1C(=Cc1ccccc1)C(=O)N2 [10720/H06] | 22.3 | – | –
7 | CSc1ccc(C=C2C(=O)Nc3c(Br)cc(Br)c(C)c32)s1 [10720/H07] | −2.9 | – | –
8 | Cc1cc(O)cc(O)c1C=C1C(=O)Nc2c(Br)cc(Br)c(C)c21 [10720/H08] | −23.7 | – | –
9 | CCOc1cc(C=C2C(=O)Nc3c(Br)cc(Br)c(C)c32)ccc1O [10720/H09] | −4.5 | – | –
10 | COc1ccc(O)c(C=C2C(=O)Nc3c(Br)cc(Br)c(C)c32)c1 [10720/H10] | −22.8 | – | –
11 | Cc1c(Br)cc(Br)c2c1C(=Cc1ncc[nH]1)C(=O)N2 [10720/H11] | −8.8 | – | –
12 | Cc1c(Br)cc(Br)c2c1C(=Cc1nc3ccccc3n1C)C(=O)N2 [10721/H02] | 5.5 | – | –
13 | Cc1c(Br)cc(Br)c2c1C(=Cc1nn(C)cc1Cl)C(=O)N2 [10721/H03] | 7.8 | – | –
14 | Cc1cc(C=C2C(=O)Nc3c(Br)cc(Br)c(C)c32)sc1C [10721/H04] | 0.7 | – | –
15 | Cc1c(Br)cc(Br)c2c1C(=Cc1cc3c([nH]1)CCCC3)C(=O)N2 [10721/H05] | −8.4 | – | –
16 | Cc1c(Br)cc(Br)c2c1C(=Cc1cc([N+](=O)[O-])cc(CCl)c1O)C(=O)N2 [10721/H06] | −7.9 | – | –
17 | Cc1c(Br)cc(Br)c2c1C(=Cc1ccc(Cl)s1)C(=O)N2 [10721/H07] | −7.0 | – | –
18 | Cc1cc(C)c(C=C2C(=O)Nc3c(Br)cc(Br)c(C)c32)[nH]1 [10721/H08] | −6.8 | – | –
19 | Cc1c(Br)cc(Br)c2c1C(=Cc1ccc(O)c(C(C)(C)C)c1)C(=O)N2 [10721/H09] | 7.0 | – | –
20 | Cc1c(Br)cc(Br)c2c1C(=Cc1cc(Br)c(O)c(C(C)(C)C)c1)C(=O)N2 [10721/H10] | 10.2 | – | –
21 | Cc1c(Br)cc(Br)c2c1C(=Cc1cc(C(C)(C)C)c(O)c(C(C)(C)C)c1)C(=O)N2 [10721/H11] | −6.0 | – | –
22 | Cc1c(Br)cc(Br)c2c1C(=Cc1cc([N+](=O)[O-])c(O)c(C(C)(C)C)c1)C(=O)N2 [10722/H02] | 4.2 | 19.2 | –
23 | Cc1c(Br)cc(Br)c2c1C(=Cc1c(O)cc(O)cc1O)C(=O)N2 [10722/H03] | 2.1 | 26.6 | –
24 | Cc1c(Br)cc(Br)c2c1C(=Cc1ccc([N+](=O)[O-])s1)C(=O)N2 [10722/H04] | 3.8 | −26.1 | –
25 | Cc1c(Br)cc(Br)c2c1C(=Cc1ccc(C(=O)O)cc1)C(=O)N2 [10722/H05] | 4.3 | 0.9 | –
26 | Cc1c(Br)cc(Br)c2c1C(=Cc1ccc(F)cc1F)C(=O)N2 [10722/H06] | 18.9 | 18.6 | –
27 | Cc1cc(C=C2C(=O)Nc3c(Br)cc(Br)c(C)c32)cc(C)c1O [10722/H07] | 2.3 | −16.9 | –
28 | Cc1c(Br)cc(Br)c2c1C(=Cc1cc(Cl)c(O)c(C(C)(C)C)c1)C(=O)N2 [10722/H08] | −20.3 | −15.2 | –
29 | Cc1ccc(C=C2C(=O)Nc3ccc(CCCl)cc32)cc1 [10736/G05] | – | – | 2.3% and 5.9%

Source: patent US20020026053A1, “Novel 3-(substituted) -2- indolinones compounds and use thereof as inhibitors of protein kinase activity” (priority 1997, published 2002)
